According to the OligoGym collection:
Several values for one entry are separate records, joined by “and”; a condition that tells them apart may be missing. Equal entries are not always repeated. After the bases stand the sugars from the 5' end (letter, count) and the backbone: PS all phosphorothioate, else s phosphorothioate and o phosphodiester by linkage. Methylation of C is not given here. k = constrained ethyl (cEt); d = 2'-deoxy (DNA)

Target: MALAT1
Details: ASO, A431, 0.005 µM

## ACCCAGTTTGTCAATA (sugars k3 d10 k3, PS)
  target mRNA inhibition: 10%

## ACCCCCACGCCAACAC (sugars k3 d10 k3, PS)
  target mRNA inhibition: 23%

## ACCCTCTAAGAGACAT (sugars k3 d10 k3, PS)
  target mRNA inhibition: 35%

## ACCGCACAGCTCGGGC (sugars k3 d10 k3, PS)
  target mRNA inhibition: 5%

## ACCTCCGTCATGTTTT (sugars k3 d10 k3, PS)
  target mRNA inhibition: 43%

## ACCTGGGCTCCCGGAG (sugars k3 d10 k3, PS)
  target mRNA inhibition: 19%

## ACCTGGGTCAGCTGTC (sugars k3 d10 k3, PS)
  target mRNA inhibition: 14%

## ACCTTCCGCCGCCTCT (sugars k3 d10 k3, PS)
  target mRNA inhibition: 33%

## ACCTTGAAACCGATTA (sugars k3 d10 k3, PS)
  target mRNA inhibition: 45%

## ACCTTTTACTCTGATC (sugars k3 d10 k3, PS)
  target mRNA inhibition: 34%

## ACGGATTTTTACCAAC (sugars k3 d10 k3, PS)
  target mRNA inhibition: 34%

## ACGGGTCATCAAACAC (sugars k3 d10 k3, PS)
  target mRNA inhibition: 14%

## ACTAGTGGTTCCCAAT (sugars k3 d10 k3, PS)
  target mRNA inhibition: 33%

## ACTATAGCATCTGTGG (sugars k3 d10 k3, PS)
  target mRNA inhibition: 9%

## ACTCCCCCCCGCCTCA (sugars k3 d10 k3, PS)
  target mRNA inhibition: 26%

## ACTGAAAACTCCCCCC (sugars k3 d10 k3, PS)
  target mRNA inhibition: -3%

## ACTGATCACTTTAGAG (sugars k3 d10 k3, PS)
  target mRNA inhibition: 36%

## ACTGATTTTAAGGTTG (sugars k3 d10 k3, PS)
  target mRNA inhibition: 26%

## ACTTAAATTACTAGCG (sugars k3 d10 k3, PS)
  target mRNA inhibition: -10%

## ACTTATCAATTCACCA (sugars k3 d10 k3, PS)
  target mRNA inhibition: 28%

## ACTTATCTGCGGTTTC (sugars k3 d10 k3, PS)
  target mRNA inhibition: 71% and 53%

## ACTTCCCCTTCTAGCT (sugars k3 d10 k3, PS)
  target mRNA inhibition: 36%

## ACTTCCGTTACGAAAG (sugars k3 d10 k3, PS)
  target mRNA inhibition: 1%

## ACTTTAAGCCTTCGGT (sugars k3 d10 k3, PS)
  target mRNA inhibition: 13%

## ACTTTCCATTACGCAA (sugars k3 d10 k3, PS)
  target mRNA inhibition: 9%

## AGAACAACTCGCATCA (sugars k3 d10 k3, PS)
  target mRNA inhibition: 12%

## AGACAAGATTCATGAG (sugars k3 d10 k3, PS)
  target mRNA inhibition: 50%

## AGACCAACTAAGCGAA (sugars k3 d10 k3, PS)
  target mRNA inhibition: 38%

## AGACCCCTGACTTTCT (sugars k3 d10 k3, PS)
  target mRNA inhibition: 22%

## AGACCTCGACACCATC (sugars k3 d10 k3, PS)
  target mRNA inhibition: 46%

## AGACTGTTGCTTGTTT (sugars k3 d10 k3, PS)
  target mRNA inhibition: 1%

## AGAGAACCACACACTA (sugars k3 d10 k3, PS)
  target mRNA inhibition: 28%

## AGAGATACCTGTCTGA (sugars k3 d10 k3, PS)
  target mRNA inhibition: 22%

## AGAGCATTGGAGATCA (sugars k3 d10 k3, PS)
  target mRNA inhibition: 20%

## AGAGGGCCTCTATTGC (sugars k3 d10 k3, PS)
  target mRNA inhibition: 33%

## AGATTAAAGTGTGATA (sugars k3 d10 k3, PS)
  target mRNA inhibition: 27%

## AGCAGTAACATCTGAT (sugars k3 d10 k3, PS)
  target mRNA inhibition: 41%

## AGCATTCCTTCGGATG (sugars k3 d10 k3, PS)
  target mRNA inhibition: 14%

## AGCATTGGAGATCAGC (sugars k3 d10 k3, PS)
  target mRNA inhibition: 36%

## AGCCCCCCACGGCCCG (sugars k3 d10 k3, PS)
  target mRNA inhibition: 27%

## AGCGAATGGCTTTGTC (sugars k3 d10 k3, PS)
  target mRNA inhibition: 5%

## AGCTGCAAACTTTAGA (sugars k3 d10 k3, PS)
  target mRNA inhibition: 26%

## AGCTTATGGAACTTGA (sugars k3 d10 k3, PS)
  target mRNA inhibition: 16%

## AGGCAAGTCCTCATTA (sugars k3 d10 k3, PS)
  target mRNA inhibition: 16%

## AGGCGAGCTGAGGCTT (sugars k3 d10 k3, PS)
  target mRNA inhibition: 19%

## AGGCTCGATGGAAAAA (sugars k3 d10 k3, PS)
  target mRNA inhibition: 28%

## AGGCTTTAAATGACGC (sugars k3 d10 k3, PS)
  target mRNA inhibition: -11%

## AGGGATTTGAACCCCG (sugars k3 d10 k3, PS)
  target mRNA inhibition: -3%

## AGGGTTATGCTTATTC (sugars k3 d10 k3, PS)
  target mRNA inhibition: 63% and 60%

## AGGTCATCTATTCACA (sugars k3 d10 k3, PS)
  target mRNA inhibition: 39%

## AGTATCAAATTATGAC (sugars k3 d10 k3, PS)
  target mRNA inhibition: 14%

## AGTCAAGCTCCTGACA (sugars k3 d10 k3, PS)
  target mRNA inhibition: 13%

## AGTCCTGCGACTTGCT (sugars k3 d10 k3, PS)
  target mRNA inhibition: 26%

## AGTGTTCCTGCATGTA (sugars k3 d10 k3, PS)
  target mRNA inhibition: 31%

## AGTTACTCCAGCATAA (sugars k3 d10 k3, PS)
  target mRNA inhibition: 31%

## AGTTTACCACCTTTTG (sugars k3 d10 k3, PS)
  target mRNA inhibition: 23%

## AGTTTTCAGCAGTAGG (sugars k3 d10 k3, PS)
  target mRNA inhibition: -21%

## ATAAGGACAGCTAAGA (sugars k3 d10 k3, PS)
  target mRNA inhibition: 8%

## ATAATCTCCCACCTGT (sugars k3 d10 k3, PS)
  target mRNA inhibition: 17%

## ATACCTTAACATCTTG (sugars k3 d10 k3, PS)
  target mRNA inhibition: 43%

## ATACTATTGTCCCATA (sugars k3 d10 k3, PS)
  target mRNA inhibition: 31%

## ATAGTACTATAGCATC (sugars k3 d10 k3, PS)
  target mRNA inhibition: 30%

## ATATTGTGCTGTTACC (sugars k3 d10 k3, PS)
  target mRNA inhibition: -9%

## ATCAACAAAAGCCCAC (sugars k3 d10 k3, PS)
  target mRNA inhibition: -12%

## ATCAAGGATGTATATA (sugars k3 d10 k3, PS)
  target mRNA inhibition: 0%

## ATCAAGGCACTGATCA (sugars k3 d10 k3, PS)
  target mRNA inhibition: 23%

## ATCACTACTCCAAGCA (sugars k3 d10 k3, PS)
  target mRNA inhibition: 20%

## ATCAGAACAGTACTGC (sugars k3 d10 k3, PS)
  target mRNA inhibition: 35%

## ATCAGCTTCCGCTAAG (sugars k3 d10 k3, PS)
  target mRNA inhibition: 4%

## ATCAGTAGTAAGAATC (sugars k3 d10 k3, PS)
  target mRNA inhibition: 23%

## ATCATAATCTCCCACC (sugars k3 d10 k3, PS)
  target mRNA inhibition: 20%

## ATCATATTTTAAACGG (sugars k3 d10 k3, PS)
  target mRNA inhibition: 32%

## ATCATTAAGCCACTTC (sugars k3 d10 k3, PS)
  target mRNA inhibition: 53% and 69%

## ATCCAAGCTACTGGCT (sugars k3 d10 k3, PS)
  target mRNA inhibition: 40%

## ATCCCATCACTGAAGC (sugars k3 d10 k3, PS)
  target mRNA inhibition: 36%

## ATCCCTTCAGGATCAT (sugars k3 d10 k3, PS)
  target mRNA inhibition: 19%

## ATCTGATTCTAACAGC (sugars k3 d10 k3, PS)
  target mRNA inhibition: 40%

## ATCTTAACTCAAAGTC (sugars k3 d10 k3, PS)
  target mRNA inhibition: 39%

## ATCTTCACCACGAACT (sugars k3 d10 k3, PS)
  target mRNA inhibition: 22%

## ATGAAATGCCTCTGCA (sugars k3 d10 k3, PS)
  target mRNA inhibition: 13%

## ATGACCCTACTGAAGA (sugars k3 d10 k3, PS)
  target mRNA inhibition: 15%

## ATGACGCAATTCTCCC (sugars k3 d10 k3, PS)
  target mRNA inhibition: 15%

## ATGCCTACCGCACAGC (sugars k3 d10 k3, PS)
  target mRNA inhibition: -8%

## ATGGAACTTGAATGCA (sugars k3 d10 k3, PS)
  target mRNA inhibition: 1%

## ATGGACATTGCCTCTT (sugars k3 d10 k3, PS)
  target mRNA inhibition: 37%

## ATGGCGGACTTTCTCC (sugars k3 d10 k3, PS)
  target mRNA inhibition: 29%

## ATGGTAGATTCCGTAA (sugars k3 d10 k3, PS)
  target mRNA inhibition: 14%

## ATTAAAGTGTGATAGT (sugars k3 d10 k3, PS)
  target mRNA inhibition: 17%

## ATTATACATCAAGGAT (sugars k3 d10 k3, PS)
  target mRNA inhibition: 17%

## ATTCAACTGGAAGCTC (sugars k3 d10 k3, PS)
  target mRNA inhibition: 17%

## ATTCAATACTATTGTC (sugars k3 d10 k3, PS)
  target mRNA inhibition: 24%

## ATTCCCACCCAAAAGC (sugars k3 d10 k3, PS)
  target mRNA inhibition: 5%

## ATTCCTTATTTAGAGG (sugars k3 d10 k3, PS)
  target mRNA inhibition: -11%

## ATTCTTTTCTTCGCCT (sugars k3 d10 k3, PS)
  target mRNA inhibition: 48%

## ATTGGAGATCAGCTTC (sugars k3 d10 k3, PS)
  target mRNA inhibition: 52%

## ATTGTCTCAATTTGGC (sugars k3 d10 k3, PS)
  target mRNA inhibition: 63% and 84%

## ATTGTTTCATCCTACC (sugars k3 d10 k3, PS)
  target mRNA inhibition: 22%

## ATTTACTTGCCAACAG (sugars k3 d10 k3, PS)
  target mRNA inhibition: 47%

## ATTTATAGACGGAGAA (sugars k3 d10 k3, PS)
  target mRNA inhibition: 9%

## ATTTTAAGGTTGCATC (sugars k3 d10 k3, PS)
  target mRNA inhibition: 37%

## CAAACGAAACATTGGC (sugars k3 d10 k3, PS)
  target mRNA inhibition: 31%

## CAAACTACACATGCAG (sugars k3 d10 k3, PS)
  target mRNA inhibition: 6%

## CAAACTTGCCATCTAC (sugars k3 d10 k3, PS)
  target mRNA inhibition: 11%

## CAAATCCTGATCTGGT (sugars k3 d10 k3, PS)
  target mRNA inhibition: 24% and 21%

## CAACACCCGGAAATCG (sugars k3 d10 k3, PS)
  target mRNA inhibition: 18%

## CAAGATTCATGAGTAT (sugars k3 d10 k3, PS)
  target mRNA inhibition: 34%

## CAAGTTACATGTTCCC (sugars k3 d10 k3, PS)
  target mRNA inhibition: 42%

## CAATATCTTAGTAACC (sugars k3 d10 k3, PS)
  target mRNA inhibition: 29%

## CAATTAATGCTAGTCC (sugars k3 d10 k3, PS)
  target mRNA inhibition: 28%

## CAATTTAGAGCTTCTC (sugars k3 d10 k3, PS)
  target mRNA inhibition: -12%

## CAATTTATAGACCCCT (sugars k3 d10 k3, PS)
  target mRNA inhibition: -6%

## CACAACAATTTAGAGC (sugars k3 d10 k3, PS)
  target mRNA inhibition: -17%

## CACACCCAGAAGTGTT (sugars k3 d10 k3, PS)
  target mRNA inhibition: 13%

## CACAGGAACAAGTCCT (sugars k3 d10 k3, PS)
  target mRNA inhibition: 16%
